# Laboratory results as given in ChEMBL document CHEMBL4507262, “Data for DCP probe A-1596586” (2021).
# Experiments:
# [1] = system: Proto-oncogene tyrosine-protein kinase receptor Ret (Homo sapiens), P07949 [V804L]; conditions: Compound concentration 1000.0 nM
# [2] = target: Calcitonin-gene-related peptide receptor, CALCRL/RAMP1 (Homo sapiens) (UniProt O60894+Q16602); assay: CGRP (h) Eurofins-Cerep binding assay; assay type: protein-complex assay; design: ligand concentration 0.03 nM; conditions: filed as agonist, Compound concentration 10.0 uM
# [3] = target: MAP/microtubule affinity-regulating kinase 3 (Homo sapiens) (UniProt P27448); conditions: Compound concentration 1000.0 nM
# [4] = target: Serine/threonine-protein kinase pim-1 (Homo sapiens) (UniProt P11309); conditions: Compound concentration 1000.0 nM
# [5] = target: Fibroblast growth factor receptor 4 (Homo sapiens) (UniProt P22455); conditions: Compound concentration 1000.0 nM
# [6] = target: Receptor-interacting serine/threonine-protein kinase 1 (Homo sapiens) (UniProt Q13546); conditions: Compound concentration 1000.0 nM
# [7] = target: Ephrin type-A receptor 6 (Homo sapiens) (UniProt Q9UF33); conditions: Compound concentration 1000.0 nM
# [8] = target: Acetylcholinesterase (Homo sapiens) (UniProt P22303); assay: Acetylcholinesterase (h) Eurofins-Cerep enzyme and uptake assay; conditions: Compound concentration 10.0 uM
# [9] = system: Epidermal growth factor receptor (Homo sapiens), P00533 [UNDEFINED MUTATION]; conditions: Compound concentration 1000.0 nM
# [10] = target: Phosphatidylinositol 4,5-bisphosphate 3-kinase catalytic subunit gamma isoform (Homo sapiens) (UniProt P48736); conditions: Compound concentration 1000.0 nM
# [11] = target: Protein kinase C theta type (Homo sapiens) (UniProt Q04759); conditions: Compound concentration 1000.0 nM
# [12] = target: Rhodopsin kinase GRK7 (Homo sapiens) (UniProt Q8WTQ7); conditions: Compound concentration 1000.0 nM
# [13] = system: Mast/stem cell growth factor receptor Kit (Homo sapiens), P10721 [A829P]; conditions: Compound concentration 1000.0 nM
# [14] = target: Serine/threonine-protein kinase STK11 (Homo sapiens) (UniProt Q15831); conditions: Compound concentration 1000.0 nM
# [15] = target: D(2) dopamine receptor (Homo sapiens) (UniProt P14416); conditions: Compound concentration 10.0 uM
# [16] = target: Inhibitor of nuclear factor kappa-B kinase subunit beta (Homo sapiens) (UniProt O14920); conditions: Compound concentration 1000.0 nM
# [17] = system: Epidermal growth factor receptor (Homo sapiens), P00533 [L858R,T790M]; conditions: Compound concentration 1000.0 nM
# [18] = target: Serine/threonine-protein kinase MRCK alpha (Homo sapiens) (UniProt Q5VT25); conditions: Compound concentration 1000.0 nM
# [19] = system: Receptor-type tyrosine-protein kinase FLT3 (Homo sapiens), P36888 [D835H]; conditions: Compound concentration 1000.0 nM
# [20] = target: Tyrosine-protein kinase ABL1 (Homo sapiens) (UniProt P00519); conditions: Compound concentration 1000.0 nM
# [21] = target: TRAF2 and NCK-interacting protein kinase (Homo sapiens) (UniProt Q9UKE5); conditions: Compound concentration 1000.0 nM
# [22] = target: Sodium-dependent noradrenaline transporter (Homo sapiens) (UniProt P23975); assay: norepinephrine transporter (h) Eurofins-Cerep binding assay; design: ligand concentration 1 nM; conditions: filed as antagonist, Compound concentration 10.0 uM
# [23] = target: Histamine H2 receptor (Homo sapiens) (UniProt P25021); assay: H2 (h) Eurofins-Cerep binding assay; design: ligand concentration 0.075 nM; conditions: filed as antagonist, Compound concentration 10.0 uM
# [24] = target: Serine/threonine-protein kinase LATS1 (Homo sapiens) (UniProt O95835); conditions: Compound concentration 1000.0 nM
# [25] = target: RAC-gamma serine/threonine-protein kinase (Homo sapiens) (UniProt Q9Y243); conditions: Compound concentration 1000.0 nM
# [26] = target: Androgen receptor (Homo sapiens) (UniProt P10275); assay: AR (h) Eurofins-Cerep binding assay; design: ligand concentration 1 nM; conditions: filed as agonist, Compound concentration 10.0 uM
# [27] = target: Serine/threonine-protein kinase Nek9 (Homo sapiens) (UniProt Q8TD19); conditions: Compound concentration 1000.0 nM
# [28] = target: Casein kinase I isoform gamma-1 (Homo sapiens) (UniProt Q9HCP0); conditions: Compound concentration 1000.0 nM
# [29] = target: Macrophage colony-stimulating factor 1 receptor (Homo sapiens) (UniProt P07333); conditions: Compound concentration 1000.0 nM
# [30] = target: 5-hydroxytryptamine receptor 1A (Homo sapiens) (UniProt P08908); assay: 5-HT1A (h) Eurofins-Cerep binding assay; design: ligand concentration 0.5 nM; conditions: filed as agonist, Compound concentration 10.0 uM
# [31] = system: Receptor-type tyrosine-protein kinase FLT3 (Homo sapiens), P36888 [UNDEFINED MUTATION]; conditions: Compound concentration 1000.0 nM
# [32] = target: MAP kinase-activated protein kinase 2 (Homo sapiens) (UniProt P49137); conditions: Compound concentration 1000.0 nM
# [33] = target: Activin receptor type-1B (Homo sapiens) (UniProt P36896); conditions: Compound concentration 1000.0 nM
# [34] = target: Tyrosine-protein kinase Fer (Homo sapiens) (UniProt P16591); conditions: Compound concentration 1000.0 nM
# [35] = target: cGMP-inhibited 3',5'-cyclic phosphodiesterase 3A (Homo sapiens) (UniProt Q14432); assay: PDE3A (h) Eurofins-Cerep enzyme and uptake assay; conditions: Compound concentration 10.0 uM
# [36] = target: Tyrosine-protein kinase ITK/TSK (Homo sapiens) (UniProt Q08881); conditions: Compound concentration 1000.0 nM
# [37] = target: Serine/threonine-protein kinase Sgk3 (Homo sapiens) (UniProt Q96BR1); conditions: Compound concentration 1000.0 nM
# [38] = target: Discoidin domain-containing receptor 2 (Homo sapiens) (UniProt Q16832); conditions: Compound concentration 1000.0 nM
# [39] = target: Prostaglandin G/H synthase 1 (Homo sapiens) (UniProt P23219); assay: COX1(h) Eurofins-Cerep enzyme and uptake assay; conditions: Compound concentration 10.0 uM
# [40] = system: Phosphatidylinositol 4,5-bisphosphate 3-kinase catalytic subunit alpha isoform (Homo sapiens), P42336 [I800L]; conditions: Compound concentration 1000.0 nM
# [41] = target: Serine/threonine-protein kinase TBK1 (Homo sapiens) (UniProt Q9UHD2); conditions: Compound concentration 1000.0 nM
# [42] = target: Ribosomal protein S6 kinase alpha-2 (Homo sapiens) (UniProt Q15349); conditions: Compound concentration 1000.0 nM
# [43] = target: cGMP-dependent protein kinase 1 (Homo sapiens) (UniProt Q13976); conditions: Compound concentration 1000.0 nM
# [44] = target: Cyclin-dependent kinase 5 (Homo sapiens) (UniProt Q00535); conditions: Compound concentration 1000.0 nM
# Chain of Cyclin-dependent kinase 5 (Homo sapiens) (Q00535 whole entry, looked up): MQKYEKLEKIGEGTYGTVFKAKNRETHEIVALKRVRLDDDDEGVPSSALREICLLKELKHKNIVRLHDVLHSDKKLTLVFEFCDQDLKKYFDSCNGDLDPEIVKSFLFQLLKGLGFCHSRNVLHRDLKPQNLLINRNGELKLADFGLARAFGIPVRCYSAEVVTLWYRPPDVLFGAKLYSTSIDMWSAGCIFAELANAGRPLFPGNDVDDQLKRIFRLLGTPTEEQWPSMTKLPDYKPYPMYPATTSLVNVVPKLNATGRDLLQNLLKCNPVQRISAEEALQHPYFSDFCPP
# Chain of Activin receptor type-1B (Homo sapiens) (P36896 whole entry): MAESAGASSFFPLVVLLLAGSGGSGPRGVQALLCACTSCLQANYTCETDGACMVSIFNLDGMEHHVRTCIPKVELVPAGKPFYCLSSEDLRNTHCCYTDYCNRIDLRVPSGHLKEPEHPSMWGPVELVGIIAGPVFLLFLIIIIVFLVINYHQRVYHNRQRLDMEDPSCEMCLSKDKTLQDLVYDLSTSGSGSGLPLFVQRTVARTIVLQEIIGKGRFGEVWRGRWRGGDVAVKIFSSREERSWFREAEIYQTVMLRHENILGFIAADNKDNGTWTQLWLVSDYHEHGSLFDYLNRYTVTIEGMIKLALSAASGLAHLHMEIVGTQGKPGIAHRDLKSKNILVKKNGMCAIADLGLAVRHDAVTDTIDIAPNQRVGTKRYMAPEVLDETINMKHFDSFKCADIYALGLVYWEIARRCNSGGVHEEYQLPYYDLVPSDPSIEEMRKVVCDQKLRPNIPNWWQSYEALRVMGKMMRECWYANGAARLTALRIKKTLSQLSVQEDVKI
# Chain of cGMP-dependent protein kinase 1 (Homo sapiens) (Q13976 whole entry): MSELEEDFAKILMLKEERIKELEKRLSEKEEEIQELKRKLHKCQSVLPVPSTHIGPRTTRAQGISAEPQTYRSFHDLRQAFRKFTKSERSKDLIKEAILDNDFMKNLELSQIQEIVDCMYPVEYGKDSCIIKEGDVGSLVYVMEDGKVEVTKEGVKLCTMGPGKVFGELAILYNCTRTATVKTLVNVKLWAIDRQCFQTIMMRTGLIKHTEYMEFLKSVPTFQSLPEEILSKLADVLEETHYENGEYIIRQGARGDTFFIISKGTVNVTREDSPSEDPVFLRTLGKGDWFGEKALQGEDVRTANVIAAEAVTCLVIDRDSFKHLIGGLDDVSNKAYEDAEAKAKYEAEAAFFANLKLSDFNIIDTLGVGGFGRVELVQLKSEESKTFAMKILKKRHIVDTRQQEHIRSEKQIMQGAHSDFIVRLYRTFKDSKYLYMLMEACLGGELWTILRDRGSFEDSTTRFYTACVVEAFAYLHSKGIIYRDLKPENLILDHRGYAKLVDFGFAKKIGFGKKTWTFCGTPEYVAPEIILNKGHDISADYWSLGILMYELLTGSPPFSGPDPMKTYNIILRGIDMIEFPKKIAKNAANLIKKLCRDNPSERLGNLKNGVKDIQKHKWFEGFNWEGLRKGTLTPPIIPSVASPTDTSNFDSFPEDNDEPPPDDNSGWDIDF
# Chain of Rhodopsin kinase GRK7 (Homo sapiens) (Q8WTQ7 whole entry): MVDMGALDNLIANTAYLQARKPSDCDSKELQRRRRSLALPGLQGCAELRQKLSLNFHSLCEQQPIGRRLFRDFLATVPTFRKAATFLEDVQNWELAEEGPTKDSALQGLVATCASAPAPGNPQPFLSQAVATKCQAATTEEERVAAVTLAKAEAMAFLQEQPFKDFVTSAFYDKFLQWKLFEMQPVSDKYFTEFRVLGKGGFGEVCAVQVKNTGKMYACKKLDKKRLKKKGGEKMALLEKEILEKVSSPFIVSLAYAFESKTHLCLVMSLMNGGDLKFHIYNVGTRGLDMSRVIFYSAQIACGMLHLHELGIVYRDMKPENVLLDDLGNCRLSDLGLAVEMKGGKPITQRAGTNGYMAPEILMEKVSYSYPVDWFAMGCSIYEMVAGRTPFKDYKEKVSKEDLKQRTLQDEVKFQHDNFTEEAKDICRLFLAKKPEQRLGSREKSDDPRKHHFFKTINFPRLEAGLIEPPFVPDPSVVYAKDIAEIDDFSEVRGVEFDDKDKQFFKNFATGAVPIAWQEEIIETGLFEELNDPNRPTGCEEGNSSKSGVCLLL
# Chain of Tyrosine-protein kinase ABL1 (Homo sapiens) (P00519 whole entry): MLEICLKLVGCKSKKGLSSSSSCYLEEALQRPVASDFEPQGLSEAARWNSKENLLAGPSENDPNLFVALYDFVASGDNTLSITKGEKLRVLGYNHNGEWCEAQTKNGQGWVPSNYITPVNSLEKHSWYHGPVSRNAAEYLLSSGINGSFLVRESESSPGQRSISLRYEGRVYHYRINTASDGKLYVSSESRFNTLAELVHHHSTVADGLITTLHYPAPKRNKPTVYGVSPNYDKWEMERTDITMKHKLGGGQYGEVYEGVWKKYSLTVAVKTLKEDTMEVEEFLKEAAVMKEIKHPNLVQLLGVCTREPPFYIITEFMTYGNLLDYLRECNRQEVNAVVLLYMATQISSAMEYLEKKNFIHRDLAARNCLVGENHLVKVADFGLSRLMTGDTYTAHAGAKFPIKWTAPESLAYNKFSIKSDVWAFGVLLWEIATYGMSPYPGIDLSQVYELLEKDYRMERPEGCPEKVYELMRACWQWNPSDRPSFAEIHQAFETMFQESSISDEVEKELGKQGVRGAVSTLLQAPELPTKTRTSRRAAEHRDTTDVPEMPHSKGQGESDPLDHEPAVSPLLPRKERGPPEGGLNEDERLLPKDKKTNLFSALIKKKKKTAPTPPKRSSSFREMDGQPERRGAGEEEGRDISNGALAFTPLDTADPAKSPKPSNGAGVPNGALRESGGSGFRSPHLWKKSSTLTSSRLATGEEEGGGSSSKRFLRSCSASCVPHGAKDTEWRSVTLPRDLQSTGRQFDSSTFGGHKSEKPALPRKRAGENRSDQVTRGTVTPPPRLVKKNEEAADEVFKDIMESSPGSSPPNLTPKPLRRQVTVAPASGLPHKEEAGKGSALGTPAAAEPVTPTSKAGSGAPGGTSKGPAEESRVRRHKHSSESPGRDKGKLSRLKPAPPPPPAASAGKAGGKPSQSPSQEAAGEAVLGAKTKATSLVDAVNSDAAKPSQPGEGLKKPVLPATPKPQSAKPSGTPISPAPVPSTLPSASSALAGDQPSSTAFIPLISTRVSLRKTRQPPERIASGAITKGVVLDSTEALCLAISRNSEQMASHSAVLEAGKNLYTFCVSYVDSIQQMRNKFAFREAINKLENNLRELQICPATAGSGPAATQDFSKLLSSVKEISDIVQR
# Chain of Serine/threonine-protein kinase Nek9 (Homo sapiens) (Q8TD19 whole entry, canonical isoform): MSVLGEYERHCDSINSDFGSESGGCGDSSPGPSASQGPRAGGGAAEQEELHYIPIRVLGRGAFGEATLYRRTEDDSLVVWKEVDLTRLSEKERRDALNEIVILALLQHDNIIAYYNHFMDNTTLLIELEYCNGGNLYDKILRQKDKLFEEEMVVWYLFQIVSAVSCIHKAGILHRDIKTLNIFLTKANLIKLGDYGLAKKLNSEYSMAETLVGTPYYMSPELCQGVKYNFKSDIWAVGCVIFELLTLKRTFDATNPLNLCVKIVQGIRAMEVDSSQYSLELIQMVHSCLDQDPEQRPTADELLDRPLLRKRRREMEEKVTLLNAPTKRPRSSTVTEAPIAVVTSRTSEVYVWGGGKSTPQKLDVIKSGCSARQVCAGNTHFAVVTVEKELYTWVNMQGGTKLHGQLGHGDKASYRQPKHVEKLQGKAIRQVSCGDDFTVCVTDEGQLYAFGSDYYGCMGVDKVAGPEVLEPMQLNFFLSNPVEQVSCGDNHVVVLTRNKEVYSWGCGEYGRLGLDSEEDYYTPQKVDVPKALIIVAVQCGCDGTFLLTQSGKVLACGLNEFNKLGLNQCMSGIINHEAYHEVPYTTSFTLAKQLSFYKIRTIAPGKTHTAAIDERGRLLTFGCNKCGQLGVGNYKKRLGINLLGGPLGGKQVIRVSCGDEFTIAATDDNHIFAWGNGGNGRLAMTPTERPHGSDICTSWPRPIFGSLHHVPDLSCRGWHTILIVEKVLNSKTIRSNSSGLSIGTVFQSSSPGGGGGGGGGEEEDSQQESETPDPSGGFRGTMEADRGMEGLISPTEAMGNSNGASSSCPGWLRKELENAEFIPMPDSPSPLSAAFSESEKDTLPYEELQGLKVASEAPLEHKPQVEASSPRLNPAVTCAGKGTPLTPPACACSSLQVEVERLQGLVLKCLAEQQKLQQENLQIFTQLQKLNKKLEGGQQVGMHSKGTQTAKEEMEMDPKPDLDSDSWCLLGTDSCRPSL
# Chain of Acetylcholinesterase (Homo sapiens) (P22303 whole entry): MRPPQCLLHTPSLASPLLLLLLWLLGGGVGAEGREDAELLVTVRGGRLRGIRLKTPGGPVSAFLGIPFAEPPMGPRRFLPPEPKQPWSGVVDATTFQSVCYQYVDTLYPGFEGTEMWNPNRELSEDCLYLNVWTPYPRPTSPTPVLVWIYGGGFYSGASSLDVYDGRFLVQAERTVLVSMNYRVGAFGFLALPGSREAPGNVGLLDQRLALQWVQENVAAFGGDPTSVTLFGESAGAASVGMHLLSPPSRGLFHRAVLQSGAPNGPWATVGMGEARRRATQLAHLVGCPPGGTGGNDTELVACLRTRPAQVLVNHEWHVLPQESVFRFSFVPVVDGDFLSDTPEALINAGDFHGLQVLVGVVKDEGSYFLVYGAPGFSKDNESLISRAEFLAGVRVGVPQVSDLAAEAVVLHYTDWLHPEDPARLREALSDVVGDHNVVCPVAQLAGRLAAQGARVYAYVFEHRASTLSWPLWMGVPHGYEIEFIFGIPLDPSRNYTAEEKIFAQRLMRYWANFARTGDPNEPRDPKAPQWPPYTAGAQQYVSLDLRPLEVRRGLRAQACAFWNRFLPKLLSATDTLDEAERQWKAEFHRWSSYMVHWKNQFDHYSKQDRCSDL
smiles,measurement,setting,value
COc1ccc2c(c1)O[C@H](c1ccc(OC)c(OC)c1)C[C@@H]2NC(=O)C1(c2ccc3c(c2)OC(F)(F)O3)CC1 [A-1596584],residual activity,[1],87%
same,% Inhibition of Control Specific Binding (Mean n=2),[2],-2.5%
same,residual activity,[3],95%
same,residual activity,[4],100%
same,residual activity,[5],100%
same,residual activity,[6],100%
same,residual activity,[7],100%
same,% Inhibition of Control Values (Mean n=2),[8],-3.9%
same,residual activity,[9],100%
same,residual activity,[10],74%
same,residual activity,[11],100%
same,residual activity,[12],100%
same,residual activity,[13],69%
same,residual activity,[14],100%
same,inhibition,[15],-7.27%
same,residual activity,[16],97%
same,residual activity,[17],96%
same,residual activity,[18],100%
same,residual activity,[19],100%
same,residual activity,[20],93%
same,residual activity,[21],100%
same,% Inhibition of Control Specific Binding (Mean n=2),[22],18.2%
same,% Inhibition of Control Specific Binding (Mean n=2),[23],-14.1%
same,residual activity,[24],65%
same,residual activity,[25],100%
same,% Inhibition of Control Specific Binding (Mean n=2),[26],-3.6%
same,residual activity,[27],100%
same,residual activity,[28],100%
same,residual activity,[29],100%
same,% Inhibition of Control Specific Binding (Mean n=2),[30],5%
same,residual activity,[31],87%
same,residual activity,[32],100%
same,residual activity,[33],82%
same,residual activity,[34],100%
same,% Inhibition of Control Values (Mean n=2),[35],-2.1%
same,residual activity,[36],100%
same,residual activity,[37],100%
same,residual activity,[38],94%
same,% Inhibition of Control Values (Mean n=2),[39],-6.7%
same,residual activity,[40],97%
same,residual activity,[41],99%
same,residual activity,[42],95%
same,residual activity,[43],100%
same,residual activity,[44],100%
COc1ccc2c(c1)O[C@@H](c1ccc(OC)c(OC)c1)C[C@H]2NC(=O)C1(c2ccc3c(c2)OC(F)(F)O3)CC1 [A-1596586],residual activity,[1],95%
same,% Inhibition of Control Specific Binding (Mean n=2),[2],-7%
same,residual activity,[3],100%
same,residual activity,[4],91%
same,residual activity,[5],90%
same,residual activity,[6],93%
same,residual activity,[7],89%
same,% Inhibition of Control Values (Mean n=2),[8],-6.2%
same,residual activity,[9],100%
same,residual activity,[10],74%
same,residual activity,[11],98%
same,residual activity,[12],100%
same,residual activity,[13],75%
same,residual activity,[14],65%
same,inhibition,[15],2.62%
same,residual activity,[16],95%
same,residual activity,[17],100%
same,residual activity,[18],90%
same,residual activity,[19],100%
same,residual activity,[20],80%
same,residual activity,[21],71%
same,% Inhibition of Control Specific Binding (Mean n=2),[22],23.5%
same,% Inhibition of Control Specific Binding (Mean n=2),[23],-18.2%
same,residual activity,[24],92%
same,residual activity,[25],100%
same,% Inhibition of Control Specific Binding (Mean n=2),[26],7.1%
same,residual activity,[27],100%
same,residual activity,[28],99%
same,residual activity,[29],82%
same,% Inhibition of Control Specific Binding (Mean n=2),[30],19.2%
same,residual activity,[31],76%
same,residual activity,[32],100%
same,residual activity,[33],67%
same,residual activity,[34],100%
same,% Inhibition of Control Values (Mean n=2),[35],1.2%
same,residual activity,[36],86%
same,residual activity,[37],84%
same,residual activity,[38],98%
same,% Inhibition of Control Values (Mean n=2),[39],-7.9%
same,residual activity,[40],79%
same,residual activity,[41],86%
same,residual activity,[42],95%
same,residual activity,[43],100%
same,residual activity,[44],100%
